Source: patent US10829427B2, “Naphthoquinones, pro-drugs, and methods of use thereof” (The Board of Regents of the University of Texas System, priority 2015, dated 2020)
Read-outs that look alike come from different tables or passages of the source.

Experiments:
Mia PaCa-2 cells = assay: ATP assay (ATP depletion / cell viability) in Mia PaCa-2 cells; assay type: cell-based, human; details: for IC50/IC50 (β-lapachone/Compoud): Relative activity compare with β-lapachone in ATP depletion of Mia PaCa-2 cells
Experimental: (§1) In vitro anti-cancer activity of the compound were performed using ATP Assay Kit (Abcam, ab83355) to initially screen, and further performed using 7-day DNA assay.
(§2) Cell culture: endogenous NQO1 overexpressing human MIA PaCa-2 pancreactic and A549 NSCLC cancer cells were obtained (Bey, et al., 2007; Li, et al., 2011). Cancer cells were grown in DMEM with 5% FBS and Mycoplasma free, and cultured at 37° C. in a 5% CO2 95% air humidified atmosphere.
ATP assay: Cells were seeded into each well of a 96-well plate (15000 cells/well) 18 hours ahead of experiment. After aspiration of the media from each well, 100 μl drug-contained media was added instead, and further incubated for 2 hours. After incubation, 100 μl ATP assay kit mixture was added into every well. Following further shaking for 10 minutes with light proof, the data were collected by reading luminescence integrate 1 second per well.

A549 cells = assay: Cell viability in A549 cells (7-day DNA assay); assay type: cell-based, human; details: relative to β-lapachone
Experimental: as §1, §2
DNA assay: Cells were seeded into each well of a 48-well plate (10000 cells/well) 24 hours ahead of experiment. After aspiration of the media from each well, 500 μl drug-contained media was added instead, and further incubated for 2 hours. Drugs were then removed, control growth medium was added, and cells were allowed to grow for an additional 7 days. Drugs were added to medium at a 1:1000 dilution immediately before administration to cells. DNA content (a measure of cell growth) was determined by fluoresence of the DNA dye Hoescht 33258 (Sigma), and read in a Cytofluor fluoresence plate reader. Data were expressed as relative growth with 6 repetitions.

MiaPaca 2 = assay: Relative survival DNA assay, MiaPaca 2, with or without dicoumarol; assay type: cell-based, human; details: for IC50: read-out: Inhibition of cell survival of DNA assay IC50
Experimental: (§3) Cell Lines and Culture. Endogenous NQO1 overexpressing human MiaPaca-2 (pancreatic carcinoma), A549 (None-small cell lung carcinoma), and MCF-7 (breast adenocarcinoma) were obtained (Bey, et al., 2007; Li, et al., 2011). All cell lines were grown in DMEM (Life Technologies) containing 5%-10% FBS (Fisher Scientific) in a 5% CO2 and 95% air incubator at 37° C.
(§4) Relative Survival Assays. Relative survival was assessed by DNA content and colony forming assays as described (Dong, et al., 2010). Briefly, for DNA content, cells were seeded at 1×10^4 per well in 48-well plates and allowed to attach overnight. Cells were then mock treated or treated with various doses of naphthaquinones (for 2 hours) in the presence or absence of dicoumarol as indicated. Drug-free medium was then added and cells were allowed to grow for 5 to 7 days until control cells reached ˜100% confluence. DNA content was then determined by Hoechst 33258 staining and fluorescence detection using a plate reader (Perkin-Elmer).

A549 = assay: Relative survival DNA assay, A549, with or without dicoumarol; assay type: cell-based, human; details: for IC50: read-out: Inhibition of cell survival of DNA assay IC50
Experimental: as §3, §4

MCF-7 = assay: Relative survival DNA assay, MCF-7, with or without dicoumarol; assay type: cell-based, human; details: for IC50: read-out: Inhibition of cell survival of DNA assay IC50
Experimental: as §3, §4

H596 = assay: Relative survival DNA assay, H596 (low NQO1 expression); assay type: cell-based; details: H596 (low NQO1 expression), Vehicle; read-out: Inhibition of cell survival of DNA assay IC50
Experimental: as §4

orthotopic A549 model = assay: In vivo anti-tumor efficacy, NOD-SCID mice bearing orthotopic A549 model; details: for Tumor growth via bioluminescence imaging: β-lap-HPβCD 20 mg/kg
Experimental: Formulation. β-lap-HPβCD formulation was prepared according to our previous report.^14 NQ-059 and HPβCD (1:45, w/w) were dissolved in EtOH, and then concentrated in vacuo to form a thin film or a sponge-like film. PBS was added, and a clear solution was formed with shaking. Immediately filtration through a Ø 0.45 µm filter (Whatman), a stable solution was afforded, whose concentration was quantified by UV-vis at 256 nm.
(§5) Survival and Antitumor Efficacies. 6- to 8-week-old NOD-SCID female mice were tail-vein administrated with luciferase gene-transfected A549 cells (1.0×106), and randomized into groups (n=7-13/group), monitored for tumor formation in the lungs using bioluminescence (BLI) following treatment with vehicle, β-lap-HPβCD, or NQ-059-HPβCD. An average of 1.0×10^7 total photons was used before any therapies were given as described (Huang, et al., 2012). Animals were treated with vehicle, β-lap-HPβCD (20 mg/kg), or NQ-059-HPβCD (15 and 12 mg/kg) via tail vein and repeated five times every 3 days. Tumor-bearing mice were imaged using BLI to estimate relative tumor volumes as described (Ma, et al., 2015) using D-luciferin (Promega, 2.5 mg, subcutaneously injected). Relative tumor volume estimates were derived from BLI images of mice captured using a Xenogen Vivovision IVIS Lumina Imager (60 s exposure time). Animals were monitored daily for survival and morbidity. Mortality was recorded over times as a result of cancer-related deaths or drug-related toxicities (≥20% body weight loss relative to the start of therapy). Athymic Nu/Nu nude female mice (18-20 grams) were commercially obtained (Harlan). Human xenografts were generated by injecting 2×10^6 MiaPaca-2 cells subcutaneously in PBS/Matrigel into 6-week-old mice. Tumors were measured at indicated times with digital calipers (Fisher Scientific), and tumor volumes calculated (length×width^2×0.5). Treatments were initiated when subcutaneous tumors reached an average size of >100 mm (Cao, et al., 2003).

[1] = test system: subcutaneous MiaPaca-2 model; assay: In vivo anti-tumor efficacy, nude mice bearing subcutaneous MiaPaca-2 model; parameters: species or system Athymic Nu/Nu nude female mice; details: subcutaneous MiaPaca-2 tumor model, FIG. 8
Experimental: as §5, with “Human xenografts were generated by injecting 2×10^6 MiaPaca-2 cells subcutaneously in PBS/Matrigel into 6-week-old mice.” left out, “Treatments were initiated when subcutaneous tumors reached an average size of >100 mm (Cao, et al., 2003).” left out

| SMILES | IC50/IC50 (β-lapachone/Compoud) (Mia PaCa-2 cells) | IC50/IC50 (β-lapachone/Compoud) (A549 cells) | other results |
| --- | --- | --- | --- |
| COCCOCCOCCOCCOC1=CC(=O)C(=O)c2c(NC(C)=O)cccc21 [Compound 48, N-(5-(2,5,8,11-tetraoxatridecan-13-yloxy)-7,8-dioxo-7,8-dihydronaphthalen-1-yl)acetamide] | >3 | >3 |  |
| CC(C)OC1=CC(=O)C(=O)c2cc(Cl)ccc21 [Compound 4, 7-chloro-4-isopropoxynaphthalene-1,2-dione] | 1~2 | 1~2 |  |
| CC1(C)CCC2=C(O1)c1ccccc1C(=O)C2=O [β-lapachone, reference compound] |  |  | IC50 (Mia PaCa-2 cells; MiaPac-2, Vehicle, read-out: Inhibition of cell viability of ATP assay IC50): 2.79 µM; IC50 (MiaPaca 2; MiaPaca 2, Dic (dicoumarol, NQO1 inhibitor)): > 10 µM; IC50 (MiaPaca 2; MiaPaca 2, Vehicle): 4.33 µM; IC50 (A549; A549, Dic (dicoumarol, NQO1 inhibitor)): > 10 µM; IC50 (A549; A549, Vehicle): 4.94 µM; IC50 (MCF-7; MCF-7, Dic (dicoumarol, NQO1 inhibitor)): 9.02 µM; IC50 (MCF-7; MCF-7, Vehicle): 2.1 µM; IC50 (H596): > 10 µM; Tumor growth via bioluminescence imaging (orthotopic A549 model; after 74 days): some tumor growth; Tumor growth via bioluminescence imaging (orthotopic A549 model; after day 44): some minor tumor growth; Survival relative to vehicle (orthotopic A549 model; orthotopic A549, FIG. 7C): small improvement over vehicle; Tumor volume relative to the vehicle [1]: did not |
| CC(C)OC1=CC(=O)C(=O)c2c(NS(C)(=O)=O)cccc21 [Compound 21, N-(5-isopropoxy-7,8-dioxo-7,8-dihydronaphthalen-1-yl)methanesulfonamide] | >3 | >3 | DNA amount in survival assay relative to β-lapachone (MiaPaca 2; MiaPaca 2, FIGS. 4A-4C): decreased DNA amounts at lower concentrations relative to β-lapachone; DNA amount in survival assay relative to β-lapachone (A549; A549, FIGS. 4G-4I): decreased DNA amounts at lower concentrations relative to β-lapachone; DNA amount in survival assay relative to β-lapachone (MCF-7; MCF-7, FIGS. 4D-4F): decreased DNA amounts at lower concentrations relative to β-lapachone |
| CC(C)OC1=CC(=O)C(=O)c2cc(Cl)c(Cl)cc21 [Compound 37, 6,7-dichloro-4-isopropoxynaphthalene-1,2-dione] | 1~2 | 0.3~1 |  |
| CC(C)OC1=CC(=O)C(=O)c2ccc(Cl)cc21 [Compound 34, 6-chloro-4-isopropoxynaphthalene-1,2-dione] | 1~2 | 0.3~1 |  |
| COCCOCCOC1=CC(=O)C(=O)c2c(NC(C)=O)cccc21 [Compound 49, N-(5-(2-(2-methoxyethoxy)ethoxy)-7,8-dioxo-7,8-dihydronaphthalen-1-yl)acetamide] | 0.3~1 | 0.3~1 |  |
| CCCCCCOC1=CC(=O)C(=O)c2c(NC(C)=O)cccc21 [Compound 28, N-(5-(hexyloxy)-7,8-dioxo-7,8-dihydronaphthalen-1-yl)acetamide] | 1~2 | 1~2 |  |
| CC(C)OC1=CC(=O)C(=O)c2c(O)cccc21 [Compound 38, 8-hydroxy-4-isopropoxynaphthalene-1,2-dione] | 1~2 | 1~2 |  |
